The values that follow come from patent US5229362A, “Antibiotic A10255 complex and factors, and process and production therefor” (Eli Lilly and Company, priority 1991, dated 1993).

In this test the test system is rumen-cannulated wethers. Briefly: Rumen lactic acidosis in rumen-cannulated wethers switched abruptly to concentrate. The class given is in vivo, sheep. To be noted: 60 mg/d; Day 6, 12-hr sample.

For the compound `CC[C@@]1([C@@H]2O[C@@H]([C@H]3O[C@@](O)(CO)[C@H](C)C[C@@H]3C)C[C@@H]2C)CC[C@H]([C@]2(C)CC[C@]3(C[C@H](O)[C@@H](C)[C@@H]([C@@H](C)[C@@H](OC)[C@H](C)C(=O)O)O3)O2)O1` [Monensin], the “Rumen pH” value is 5.02 and the “Ruminal TVFA” value came to 43.6 mM/l.
